# Test results published in patent publication US6737407B1, “Treatment of obesity” (Metabolic Pharmaceuticals, Ltd., priority 1997, dated 2004).
# Bridges are numbered along the chain shown (N, C = ends). Where no end group is shown, it is not given here.
# Tests used:
# [1] = tested on: adipose tissues from male Zucker fatty (fa/fa) rats; assay: In vitro glycerol release during lipolysis in isolated adipose tissue; assay type: cell-based, rat
# Experimental: Adipose tissues were removed from animals and sliced into segments of approximately 200 mg each. Then the tissues were pre-incubated in 25 ml vials containing 2 ml of Krebs-Ringerbicarbonate (KRB) buffer, 4% defatted BSA and 5.5 mM glucose under an atmosphere of carbogen (95%O2/ 5%CO2) at 37° C. for 1 hour. Tissues were then transferred to another vials with fresh medium and the incubation was initiated by adding hGH 177-191 peptide or analogues into the vials. The mixtures were then incubated at 37° C. for 90 minutes. After incubation, the tissues wee removed and aliquots (200 μl) of samples withdrawn from the medium were assayed for the contents of glycerol or free fatty acid (FFA) either by the enzyme assay (glycerol kinase) or calorimetric (copper-dye) spectrometry. The NADH or color produced was then monitored by the absorption at 340 nm and 610 nm, respectively.
# [2] = tested on: adipose tissues from male Zucker fatty (fa/fa) rats; assay: In vitro inhibition of lipogenesis in isolated adipose tissue; assay type: cell-based, rat; settings: for activity according to the in vivo and in vitro assay results (in words): structure-activity summary; for In vitro lipogenesis % of control / In vitro lipogenesis Activity / In vitro lipogenesis, rate of [C14]-glucose incorporation into [C14]-lipid: peptide 0.3 μM, insulin 0.1 mU/ml; for In vitro lipogenesis, rate of [C14]-glucose incorporation into [C14]-lipid: KRB buffer
# Experimental: The rate of the incorporation of exogenous [C^14]-glucose into total lipid in adipose tissue was measured as the index of anti-lipogenic activity of hGH 177-191.
# Adipose tissues were sliced into segments of approximately 200 mg each and then placed in Krebs-Ringer bicarbonate (KRB) buffer (pH 7.4) containing 2% defatted BSA, and glucose (0.1 mg/ml) and gassed with 95% O2-5% CO2 at 37° C. After 1 hr preincubation, the tissues were transferred to another 2 ml of fresh media containing [C^14]-glucose (final specific activity 0.05 μCi/μmol), and 0.3 μM of hGH 177-191 in the presence or absence of insulin (0.1 mU/ml) for a further 90 min incubation (conditions as above). Then the tissues were removed, washed thoroughly with KRB buffer and lipid was extracted with 5 ml of chlorofom/methanol (2:1, v/v) The extraction solution was washed with 2 ml of MeOH-H2O solution containing 0.1% MgCl2. A 2.5 ml aliquot of the washed extraction solution was taken and transferred to scintillation vials. The [C^14] radioactivity was measured with a liquid scintillation counter. The rates of total lipid synthesis were expressed as μmol [C^14]-glucose incorporated into lipid/g tissue/hr.
Substance,Glycerol release ([1]; peptide concentration 0.1 μM),Glycerol release ([1]; peptide concentration 1.0 μM),activity according to the in vivo and in vitro assay results (in words) [2],In vitro lipogenesis % of control [2],In vitro lipogenesis Activity [2],"In vitro lipogenesis, rate of [C14]-glucose incorporation into [C14]-lipid [2]"
9401 (LRIVQCRSVEGSCGF; listed as Homo sapiens) [compound 9401],1.82 ± 0.02 μmol/g tissue/hr,1.86 ± 0.12 μmol/g tissue/hr,–,–,–,–
9404 (LRIVQCRSVEGSCGF-NH2; disulfide 6-13; N-terminus assumed; SMILES CC[C@H](C)[C@H](NC(=O)[C@H](CCCNC(=N)N)NC(=O)[C@@H](N)CC(C)C)C(=O)N[C@H](C(=O)N[C@@H](CCC(N)=O)C(=O)N[C@H]1CSSC[C@@H](C(=O)NCC(=O)N[C@@H](Cc2ccccc2)C(N)=O)NC(=O)[C@H](CO)NC(=O)CNC(=O)[C@H](CCC(=O)O)NC(=O)[C@H](C(C)C)NC(=O)[C@H](CO)NC(=O)[C@H](CCCNC(=N)N)NC1=O)C(C)C; listed as Homo sapiens) [compound 9404],1.75 ± 0.12 μmol/g tissue/hr,1.94 ± 0.12 μmol/g tissue/hr,–,–,–,–
9407 (LRIVQCKSVEGSCGF; disulfide 6-13; listed as Homo sapiens) [compound 9407],1.83 ± 0.11 μmol/g tissue/hr,1.79 ± 0.07 μmol/g tissue/hr,retains activity,–,–,–
9601 (LRIVQCRSVEGSCGA; disulfide 6-13; listed as Homo sapiens) [Compound 9601],–,–,–,76 % of control,Active,185 ± 24 nmol/g tissue/hr
9602 (LRIVQCRSVEGSCAF; disulfide 6-13; listed as Homo sapiens) [Compound 9602],–,–,–,73 % of control,Active,176 ± 27 nmol/g tissue/hr
9603 (LAIVQCRSVEGSCGF; listed as Homo sapiens) [Compound 9603],–,–,–,93 % of control,Inactive,225 ± 18 nmol/g tissue/hr
9604 (YLRIVQCRSVEGSCGF; disulfide 7-14; listed as Homo sapiens) [Compound 9604],–,–,–,49 % of control,Active,118 ± 16 nmol/g tissue/hr
9605 (KLRIVQCRSVEGSCGF; disulfide 7-14; listed as Homo sapiens) [Compound 9605],–,–,–,76 % of control,Active,184 ± 41 nmol/g tissue/hr
9606 (LKIVQCRSVEGSCGF; disulfide 6-13; listed as Homo sapiens) [Compound 9606],–,–,–,77 % of control,Active,187 ± 19 nmol/g tissue/hr
9606 (LKIVQCRSVEGSCGF; disulfide 6-13; listed as Homo sapiens) [compound 9606],–,–,retains activity,–,–,–
9607 (ARIVQCRSVEGSCGF; disulfide 6-13; listed as Homo sapiens) [Compound 9607],–,–,–,82 % of control,Active,198 ± 12 nmol/g tissue/hr
9608 (LRAVQCRSVEGSCGF; disulfide 6-13; listed as Homo sapiens) [Compound 9608],–,–,–,71 % of control,Active,173 ± 12 nmol/g tissue/hr
9609 (LRIAQCRSVEGSCGF; disulfide 6-13; listed as Homo sapiens) [Compound 9609],–,–,–,78 % of control,Active,188 ± 13 nmol/g tissue/hr
9610 (LRIVACRSVEGSCGF; disulfide 6-13; listed as Homo sapiens) [Compound 9610],–,–,–,79 % of control,Active,192 ± 14 nmol/g tissue/hr
9611 (LRIVQARSVEGSCGF; listed as Homo sapiens) [Compound 9611],–,–,–,93 % of control,Inactive,224 ± 19 nmol/g tissue/hr
9611 (LRIVQARSVEGSCGF; listed as Homo sapiens) [compound 9611],–,–,inactive,–,–,–
9612 (LRIVQCRAVEGSCGF; disulfide 6-13; listed as Homo sapiens) [Compound 9612],–,–,–,79 % of control,Active,191 ± 20 nmol/g tissue/hr
9613 (LRIVQCRSAEGSCGF; disulfide 6-13; listed as Homo sapiens) [Compound 9613],–,–,–,78 % of control,Active,189 ± 16 nmol/g tissue/hr
9614 (LRIVQCRSVAGSCGF; listed as Homo sapiens) [Compound 9614],–,–,–,96 % of control,Inactive,233 ± 13 nmol/g tissue/hr
9615 (LRIVQCRSVEASCGF; disulfide 6-13; listed as Homo sapiens) [Compound 9615],–,–,–,76 % of control,Active,183 ± 17 nmol/g tissue/hr
9616 (LRIVQCRSVEGACGF; disulfide 6-13; listed as Homo sapiens) [Compound 9616],–,–,–,84 % of control,Active,203 ± 19 nmol/g tissue/hr
9617 (LRIVQCRSVEGSAGF; listed as Homo sapiens) [Compound 9617],–,–,–,92 % of control,Inactive,223 ± 16 nmol/g tissue/hr
9617 (LRIVQCRSVEGSAGF; listed as Homo sapiens) [compound 9617],–,–,inactive,–,–,–
9618 (KKLRIVQCRSVEGSCGF; disulfide 8-15; listed as Homo sapiens) [Compound 9618],–,–,–,77 % of control,Active,188 ± 19 nmol/g tissue/hr
